Measured values taken from patent US11505835B2, “Method for determining the identity and antimicrobial susceptibility of a microorganism” (Q-linea AB, priority 2014, dated 2022).
Values after ≈ are worked out from the molar mass of the structure shown.

Legend:
E. coli [1] = details: determined by another lab; cited from earlier work
E. coli [2] = assay: MIC with Macrobroth dilution; format: cell-based; details: reference method; for MIC: Escherichia coli
E. coli [3] = assay: AST by counting individual bacteria in a flow cytometry type instrument (Aquila 400); MIC from differential growth relative to positive control; format: cell-based
Experimental: The sample was enriched for bacteria and at the same time the culture media was changed, in this case to Mueller-Hinton media (MH-media). E. coli bacteria were recovered via filtration through a 0.2 μm filter and the recovered bacteria were resuspended in MH-media to a concentration of approximately 10^8 CFU/ml in Müller Hinton broth before being diluted to approximately 10^6 CFU/ml in Müller Hinton Broth. Antibiotic solutions were prepared in a series of 2:1 serial dilutions in Müller Hinton broth at 10×test concentrations. The range of antibiotic concentrations was chosen based on identity of the bacteria and the antibiotic. […] A series of eight different concentrations was selected based on known clinical MIC values. Eight sample tubes containing 100 μl antibiotic solution at eight different concentrations and 800 μl Müller Hinton broth were prepared. One additional tube contains 900 μl Müller Hinton broth and no antibiotic as positive control. 100 μl bacterial suspension (10^6 CFU/ml) was added to all nine tubes. A negative control sample comprising 1000 μl Müller Hinton broth (i.e. no bacteria) is prepared as negative control. All tubes were incubated at 35° C. and samples were taken after 0, 4, 6 and 24 hours. Bacterial samples were prepared for counting as in Example 2. Bacterial AST profiles were determined using a flow cytometry based counting of individual bacteria in an Aquila 400 instrument (Q-linea AB, Sweden). Aquila 400 analysis was performed using the alexa 488 laser. […] MIC values for each antibiotic at different time points and cut-off values were calculated based on the differential bacterial growth.

[4] = Escherichia coli, 4 h, cut-off 5%, 4 hours, Müller Hinton broth, 35° C., read-out: MIC
[5] = Escherichia coli, 4 h, cut-off 10%, 4 hours, Müller Hinton broth, 35° C., read-out: MIC
[6] = Escherichia coli, 24 h, cut-off 5%, 24 hours, Müller Hinton broth, 35° C., read-out: MIC
[7] = Escherichia coli, 24 h, cut-off 10%, 24 hours, Müller Hinton broth, 35° C., read-out: MIC
[8] = Escherichia coli, 24 h, cut-off 15%, 24 hours, Müller Hinton broth, 35° C., read-out: MIC
[9] = Escherichia coli, 24 h, cut-off 20%, 24 hours, Müller Hinton broth, 35° C., read-out: MIC
[10] = Escherichia coli, 4 h, cut-off 20%, 4 hours, Müller Hinton broth, 35° C., read-out: MIC
[11] = Escherichia coli, 6 h, cut-off 15%, 6 hours, Müller Hinton broth, 35° C., read-out: MIC
[12] = Escherichia coli, 6 h, cut-off 20%, 6 hours, Müller Hinton broth, 35° C., read-out: MIC
[13] = Escherichia coli, 4 h, cut-off 15%, 4 hours, Müller Hinton broth, 35° C., read-out: MIC
[14] = Escherichia coli, 6 h, cut-off 5%, 6 hours, Müller Hinton broth, 35° C., read-out: MIC
[15] = Escherichia coli, 6 h, cut-off 10%, 6 hours, Müller Hinton broth, 35° C., read-out: MIC

Compound	MIC with E-test (E. coli [1])	MIC (E. coli [2])	MIC (E. coli [3]; [4])	MIC (E. coli [3]; [5])	MIC (E. coli [3]; [6])	MIC (E. coli [3]; [7])	MIC (E. coli [3]; [8])	MIC (E. coli [3]; [9])	MIC (E. coli [3]; [10])	MIC (E. coli [3]; [11])	MIC (E. coli [3]; [12])	MIC (E. coli [3]; [13])	MIC (E. coli [3]; [14])	MIC (E. coli [3]; [15])	other results
CC(C)(O/N=C(\C(=O)N[C@@H]1C(=O)N2C(C(=O)[O-])=C(C[n+]3ccccc3)CS[C@H]12)c1csc(N)n1)C(=O)O [Ceftazidime]	≤ 0.5 mg/L	0.25 mg/L (≈ 0.457 µM)	0.25 mg/L (≈ 0.457 µM)	0.25 mg/L (≈ 0.457 µM)	0.25 mg/L (≈ 0.457 µM)	0.25 mg/L (≈ 0.457 µM)	0.25 mg/L (≈ 0.457 µM)	0.25 mg/L (≈ 0.457 µM)							
C[C@@H](O)[C@H]1C(=O)N2C(C(=O)O)=C(S[C@@H]3CN[C@H](C(=O)N(C)C)C3)[C@H](C)[C@H]12 [Meropenem]	≤ 0.25 mg/L	0.25 to 0.5 mg/L (≈ 0.652 to 1.3 µM)			0.5 mg/L (≈ 1.3 µM)	0.5 mg/L (≈ 1.3 µM)	0.25 mg/L (≈ 0.652 µM)		0.5 mg/L (≈ 1.3 µM)	0.5 mg/L (≈ 1.3 µM)	0.25 mg/L (≈ 0.652 µM)				MIC (E. coli [3]; Escherichia coli, 24 h): 0.125 mg/L (≈ 0.326 µM)
CO/N=C(\C(=O)N[C@@H]1C(=O)N2C(C(=O)O)=C(COC(C)=O)CS[C@H]12)c1csc(N)n1 [Cefotaxime]	≤ 0.5 mg/L						0.06 mg/L (≈ 0.132 µM)	0.06 mg/L (≈ 0.132 µM)	0.06 mg/L (≈ 0.132 µM)	0.03 mg/L (≈ 0.0659 µM)	0.03 mg/L (≈ 0.0659 µM)	0.06 mg/L (≈ 0.132 µM)	0.06 mg/L (≈ 0.132 µM)	0.06 mg/L (≈ 0.132 µM)	
Gentamicin	1 mg/L														MIC with Macrobroth dilution (E. coli [2]): 0.5 to 1 mg/L; MIC (E. coli [3]; cut-off 5%, 4 hours, Müller Hinton broth, 35° C.): 1 mg/L; MIC (E. coli [3]; cut-off 5%, 6 hours, Müller Hinton broth, 35° C.): 0.5 mg/L; MIC (E. coli [3]; cut-off 5%, 24 hours, Müller Hinton broth, 35° C.): 1 mg/L; MIC (E. coli [3]; cut-off 10%, 4 hours, Müller Hinton broth, 35° C.): 0.5 mg/L; MIC (E. coli [3]; cut-off 10%, 6 hours, Müller Hinton broth, 35° C.): 0.5 mg/L; MIC (E. coli [3]; cut-off 10%, 24 hours, Müller Hinton broth, 35° C.): 1 mg/L; MIC (E. coli [3]; cut-off 15%, 4 hours, Müller Hinton broth, 35° C.): 0.5 mg/L; MIC (E. coli [3]; cut-off 15%, 6 hours, Müller Hinton broth, 35° C.): 0.5 mg/L; MIC (E. coli [3]; cut-off 15%, 24 hours, Müller Hinton broth, 35° C.): 1 mg/L; MIC (E. coli [3]; cut-off 20%, 4 hours, Müller Hinton broth, 35° C.): 0.5 mg/L; MIC (E. coli [3]; cut-off 20%, 6 hours, Müller Hinton broth, 35° C.): 0.5 mg/L; MIC (E. coli [3]; cut-off 20%, 24 hours, Müller Hinton broth, 35° C.): 1 mg/L
O=C(O)c1cn(C2CC2)c2cc(N3CCNCC3)c(F)cc2c1=O [Ciprofloxacin]	≤ 0.03 mg/L	0.016 mg/L (≈ 0.0483 µM)	0.016 mg/L (≈ 0.0483 µM)	0.008 mg/L (≈ 0.0241 µM)	0.008 mg/L (≈ 0.0241 µM)	0.008 mg/L (≈ 0.0241 µM)	0.008 mg/L (≈ 0.0241 µM)	0.008 mg/L (≈ 0.0241 µM)	0.008 mg/L (≈ 0.0241 µM)	0.008 mg/L (≈ 0.0241 µM)	0.004 mg/L (≈ 0.0121 µM)	0.008 mg/L (≈ 0.0241 µM)	0.008 mg/L (≈ 0.0241 µM)	0.008 mg/L (≈ 0.0241 µM)	
